What was measured:
PBMC = experiment: Cytotoxicity against human PBMC cells assessed as reduction in cell viability after 24 hrs by MTT assay; type: cell-based
HL-60 = experiment: Antiproliferative activity against human HL60 cells assessed as reduction in cell viability after 24 hrs by MTT assay; type: functional, cell-based; details: HL-60, 24 h
K562-Lucena 1 = experiment: Antiproliferative activity against human K562-Lucena 1 cells assessed as reduction in cell viability after 24 hrs by MTT assay; type: functional, cell-based; details: K562-Lucena 1, 24 h
K562 [1] = experiment: Antiproliferative activity against human K562 cells assessed as reduction in cell viability after 24 hrs by MTT assay; type: functional, cell-based; details: K562, 24 h
NCI-H460 = experiment: Antiproliferative activity against human H460 cells by MTT assay; type: functional, cell-based
A549 = experiment: cells; type: functional, cell-based; details: Homo sapiens
Description: Antiproliferative activity against human A549 cells by MTT assay

HepG2 [2] = experiment: Antiproliferative activity against human HepG2 cells by MTT assay; type: functional, cell-based
LoVo = experiment: Antiproliferative activity against human LoVo cells by MTT assay; type: functional, cell-based
K562 [3] = experiment: Antiproliferative activity against human K562 cells by MTT assay; type: functional, cell-based
MCF7 [4] = experiment: cells; type: functional, cell-based; details: Homo sapiens
Description: Antiproliferative activity against human MCF7 cells by MTT assay

HCT-116 [5] = experiment: Antiproliferative activity against human HCT116 cells by MTT assay; type: functional, cell-based
HT-29 [6] = experiment: Potency index, ratio of Sorafenib IC50 to test compound IC50 for antiproliferative activity against human HT-29 cells; type: functional
MCF7 [7] = experiment: Potency index, ratio of Sorafenib IC50 to test compound IC50 for antiproliferative activity against human MCF7 cells; type: functional
MCF7 [8] = experiment: Antiproliferative activity against human MCF7 cells assessed as reduction in cell viability after 72 hrs by MTT assay; type: functional, cell-based; details: MCF7, 72 h
HT-29 [9] = experiment: Antiproliferative activity against human HT-29 cells assessed as reduction in cell viability after 72 hrs by MTT assay; type: functional, cell-based; details: HT-29, 72 h
[10] = Antiproliferative activity against human […] cells assessed as reduction in cell viability after 72 hrs by MTT assay; type: functional, cell-based
A-431 = experiment: Antiproliferative activity against human A431 cells assessed as reduction in cell viability after 72 hrs by MTT assay; type: functional, cell-based; details: A-431, 72 h
T47D = experiment: Antiproliferative activity against human T47D cells assessed as reduction in cell viability after 72 hrs by MTT assay; type: functional, cell-based
MDA-MB-231 = experiment: Antiproliferative activity against human MDA-MB-231 cells assessed as reduction in cell viability after 72 hrs by MTT assay; type: functional, cell-based; details: MDA-MB-231, 72 h, read-out: IC50
HeLa [11] = experiment: Antiproliferative activity against human HeLa cells assessed as reduction in cell viability after 72 hrs by MTT assay; type: functional, cell-based
A2780 = experiment: Antiproliferative activity against human A2780 cells assessed as reduction in cell viability after 72 hrs by MTT assay; type: functional, cell-based; details: A2780, 72 h
PC-3 = experiment: Antiproliferative activity against human PC3 cells assessed as reduction in cell viability after 24 hrs by MTT assay; type: functional, cell-based; details: PC-3, 24 h
HepG2 [12] = experiment: Antiproliferative activity against human HepG2 cells assessed as reduction in cell viability after 24 hrs by MTT assay; type: functional, cell-based; details: HepG2, 24 h
MCF7 [13] = experiment: Antiproliferative activity against human MCF7 cells assessed as reduction in cell viability after 24 hrs by MTT assay; type: functional, cell-based; details: MCF7, 24 h
[14] = Cytotoxicity against human HEK cells assessed as reduction in cell viability after 24 hrs by MTT assay; type: cell-based; details: HEK293, 24 h
HCT-116 [15] = experiment: Antiproliferative activity against human HCT116 cells assessed as reduction in cell viability after 24 hrs by MTT assay; type: functional, cell-based; details: HCT-116, 24 h
Erythrocyte = experiment: Cytotoxicity against human RBC cells assessed as reduction in cell viability after 24 hrs by MTT assay; type: cell-based
[16] = Antiproliferative activity against BAEC cells assessed as reduction in cell viability after 3 days by coulter counting method; type: functional, cell-based; details: Bos taurus, 72 h
L1210 = experiment: Antiproliferative activity against mouse L1210 cells assessed as reduction in cell viability after 3 days by coulter counting method; type: functional, cell-based; details: L1210, 72 h
MKN-28 = experiment: Antiproliferative activity against human MKN28 cells by MTT assay; type: functional, cell-based
MKN-45 = experiment: Antiproliferative activity against human MKN45 cells by MTT assay; type: functional, cell-based
MGC-803 = experiment: Antiproliferative activity against human MGC803 cells by MTT assay; type: functional, cell-based
DU-145 = experiment: Antiproliferative activity against human DU145 cells assessed as reduction in cell viability after 48 hrs by MTT assay; type: functional, cell-based; details: DU-145, 48 h
HeLa [17] = experiment: Antiproliferative activity against human HeLa cells assessed as reduction in cell viability after 48 hrs by MTT assay; type: functional, cell-based
SK-OV-3 = experiment: Antiproliferative activity against human SKOV3 cells assessed as reduction in cell viability after 48 hrs by MTT assay; type: functional, cell-based; details: SK-OV-3, 48 h

Structure (SMILES): O=C1C=C(n2cc(-c3ccccc3)nn2)C(=O)c2ccccc21
- IC50 (PBMC): 14.3 to 99.2 µM
- IC50 (HL-60): 14.3 to 99.2 µM
- IC50 (K562-Lucena 1): 14.3 to 99.2 µM
- IC50 (K562 [1]): 14.3 to 99.2 µM

Structure (SMILES): COc1ccc(-c2cn(C3=CC(=O)c4ccccc4C3=O)nn2)cc1
- IC50 (PBMC): 14.3 to 99.2 µM
- IC50 (HL-60): 14.3 to 99.2 µM
- IC50 (K562-Lucena 1): 14.3 to 99.2 µM
- IC50 (K562 [1]): 14.3 to 99.2 µM

Structure (SMILES): COc1ccc2c(c1)OCC(=O)N2Cc1cn(Cc2ccccc2)nn1
- IC50 (NCI-H460): 8 µM
- IC50 (A549): 10 µM

Structure (SMILES): COc1ccc2[nH]cc(Cn3cc(COc4ccc(/C=C/C(=O)NO)cc4OC)nn3)c2c1
- IC50 (HepG2 [2]): 3.57 to 6.21 µM
- IC50 (LoVo): 3.57 to 6.21 µM
- IC50 (K562 [3]): 3.57 to 6.21 µM
- IC50 (MCF7 [4]): 3.57 to 6.21 µM
- IC50 (HCT-116 [5]): 3.57 to 6.21 µM

Structure (SMILES): CNC(=O)c1cc(Oc2ccc(-n3cc(-c4cccs4)nn3)cc2)ccn1
- Ratio IC50 (HT-29 [6]): 6.2 - 131.2
- Ratio IC50 (MCF7 [7]): 6.2 - 131.2
- IC50 (MCF7 [8]): 0.2 to 0.84 µM
- IC50 (HT-29 [9]): 0.2 to 0.84 µM

Structure (SMILES): CNC(=O)c1cc(Oc2ccc(-n3cc(-c4cccc(F)c4)nn3)cc2)ccn1
- Ratio IC50 (HT-29 [6]): 6.2 - 131.2
- Ratio IC50 (MCF7 [7]): 6.2 - 131.2
- IC50 (MCF7 [8]): 0.2 to 0.84 µM
- IC50 (HT-29 [9]): 0.2 to 0.84 µM

Structure (SMILES): CC(C)(C)c1ccc(-c2cn([C@H]3C[C@H]4[C@@H]5CCc6cc(OCc7ccccc7)ccc6[C@H]5CC[C@@]4(C)[C@@H]3O)nn2)cc1
- IC50 [10]: 2.4 to 8.3 µM
- IC50 (A-431): 2.4 to 8.3 µM
- IC50 (T47D): 2.4 to 8.3 µM
- IC50 (MDA-MB-231): 2.4 to 8.3 µM
- IC50 (HeLa [11]): 2.4 to 8.3 µM
- IC50 (A2780): 2.4 to 8.3 µM
- IC50 (MCF7 [8]): 2.4 to 8.3 µM

Structure (SMILES): COc1cc2nc(Cl)nc(Nc3ccc(Cn4cc(-c5ccccc5)nn4)cc3)c2cc1OC
- IC50 (PC-3): 20.7 to 68 µM
- IC50 (HepG2 [12]): 20.7 to 68 µM
- IC50 (MCF7 [13]): 20.7 to 68 µM
- IC50 (PBMC): 37.4 µM
- IC50 [14]: 40.3 µM
- IC50 (HCT-116 [15]): 20.7 to 68 µM
- IC50 (Erythrocyte): 45.6 µM

Structure (SMILES): CS(=O)(=O)c1ccc(-c2cn(-c3cccc(-c4ccccn4)c3)nn2)cc1
- IC50 [16]: 100 µM
- IC50 (L1210): 100 µM

Structure (SMILES): COc1ccc(-n2cc(CN3c4ccccc4Sc4ccccc43)nn2)c([N+](=O)[O-])c1
- IC50 (MKN-28): 1.2 to 3.5 µM
- IC50 (MKN-45): 1.2 to 3.5 µM
- IC50 (MGC-803): 1.2 to 3.5 µM

Structure (SMILES): CS(=O)(=O)c1ccc(-c2cn(-c3ccc(Cl)c(-c4ccccn4)c3)nn2)c(Cl)c1
- IC50 [16]: 40 to 82 µM
- IC50 (L1210): 40 to 82 µM

Structure (SMILES): CCc1ccc(-n2cc(CNC(=O)C(=O)c3c[nH]c4ccccc34)nn2)cc1
- IC50 (DU-145): 8.17 µM
- IC50 (HeLa [17]): > 100 µM
- IC50 (SK-OV-3): > 100 µM
